Target: T1, gastrin (CCK2) receptors (Rattus norvegicus, UniProt P30553)
T1 construct: The stomach was excised and flushed with ca. 1 ml of unbuffered physiological saline solution; from tissue; host or cells: isolated whole stomach of immature rats (ca. 21 days old)
T1 sequence (P30553 1-452): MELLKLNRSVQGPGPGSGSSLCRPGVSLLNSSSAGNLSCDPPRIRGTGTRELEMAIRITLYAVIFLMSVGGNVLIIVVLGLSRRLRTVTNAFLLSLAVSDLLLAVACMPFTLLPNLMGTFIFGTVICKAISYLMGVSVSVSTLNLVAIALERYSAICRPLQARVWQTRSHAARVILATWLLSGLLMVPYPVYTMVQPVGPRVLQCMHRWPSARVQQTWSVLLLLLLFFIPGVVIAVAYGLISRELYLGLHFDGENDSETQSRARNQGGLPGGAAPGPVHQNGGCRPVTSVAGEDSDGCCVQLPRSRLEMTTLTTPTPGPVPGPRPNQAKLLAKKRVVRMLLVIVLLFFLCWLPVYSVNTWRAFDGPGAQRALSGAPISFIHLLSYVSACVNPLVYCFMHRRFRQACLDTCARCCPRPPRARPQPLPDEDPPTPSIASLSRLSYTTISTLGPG
Assay: gastrin (CCK2) antagonist activity in an immature rat stomach assay
Settings: pentagastrin dose-response curves, acid secretion, read-out: pKB rat stomach (converted)
Description: The compounds of the examples were tested for gastrin (CCK2) antagonist activity in an immature rat stomach assay. The procedure was as follows:
The oesophagus of immature rats (33-50 g, ca. 21 days old) was ligated at the level of the cardiac sphincter and the duodenal sphincter was cannulated. The stomach was excised and flushed with ca. 1 ml of unbuffered physiological saline solution. The fundus was punctured and cannulated. A further 4-5 ml of unbuffered solution was flushed through the stomach to ensure the preparation was not leaking. […] The stomach was continuously perfused at a rate of 1 ml min^−1 with unbuffered solution gassed with 100% O2 with the perfusate passing over an internally referenced pH-electrode fixed 12 cm above the stomach.
After 120 min of stabilisation the drugs were added directly to the serosal solution in the organ bath and after a further 60 min cumulative pentagastrin dose-response curves were started.

| Structure (SMILES) | Kb [nM] |
| --- | --- |
| CNCCN(C)c1cccc(NC(=O)CN2N=C(C3CCCCC3)c3ccccc3N(CC(=O)C(C)(C)C)C2=O)c1 [Example 143, 2-[5-Cyclohexyl-1-(3,3-dimethyl-2-oxo-butyl)-2-oxo-1,2-dihydro-3H-1,3,4-benzotriazepin-3-yl]-N-{3-[methyl-(2-methylamino-ethyl)-amino]-phenyl}-acetamide] | 117 |
| CC(=O)N(CC(=O)O)c1cccc(NC(=O)CN2N=C(C3CCCCC3)c3ccccc3N(CC(=O)C(C)(C)C)C2=O)c1 [Example 65, [Acetyl-(3-{2-[5-cyclohexyl-1-(3,3-dimethyl-2-oxo-butyl)-2-oxo-1,2-dihydro-3H-1,3,4-benzotriazepin-3-yl]-acetylamino}-phenyl)-amino]-acetic acid] | 52.5 |
| CC(C)(C)C(=O)CN1C(=O)N(CC(=O)Nc2cccc(Cc3nnn[nH]3)c2)N=C(C2CCCCC2)c2ccccc21 [Example 67, 2-[5-Cyclohexyl-1-(3,3-dimethyl-2-oxo-butyl)-2-oxo-1,2-dihydro-3H-1,3,4-benzotriazepin-3-yl]-N-[3-(1H-tetrazol-5-ylmethyl)-phenyl]-acetamide] | 77.6 |
| O=C(CN1N=C(C2CCCCC2)c2ccccc2N(CC(=O)C2CCCCC2)C1=O)Nc1cccc(-c2nc(=O)o[nH]2)c1 [Example 111, 2-[5-Cyclohexyl-1-(2-cyclohexyl-2-oxo-ethyl)-2-oxo-1,2-dihydro-3H-1,3,4-benzotriazepin-3-yl]-N-[3-(5-oxo-2,5-dihydro-[1,2,4]oxadiazol-3-yl)-phenyl]-acetamide] | 2.19 |
| CC(C)(C)C(=O)CN1C(=O)N(CC(=O)Nc2cccc(C(=O)NS(C)(=O)=O)c2)N=C(C2CCCCC2)c2ccccc21 [Example 40] | 22.9 |
| CNc1cccc(NC(=O)NCN2N=C(c3ccccn3)c3ccccc3N(CC(=O)C(C)(C)C)C2=O)c1 [Example 8, 1-[1-(3,3-Dimethyl-2-oxo-butyl)-2-oxo-5-pyridin-2-yl-1,2-dihydro-3H-1,3,4-benzotriazepin-3-ylmethyl]-3-(3-methylamino-phenyl)-urea] | 263 |
| CC(C)(C)C(=O)CN1C(=O)N(CC(=O)Nc2cccc(-c3nn[nH]n3)c2)N=C(C2CCCCC2)c2ccccc21 [Example 23, 2-[5-Cyclohexyl-1-(3,3-dimethyl-2-oxo-butyl)-2-oxo-1,2-dihydro-3H-1,3,4-benzotriazepin-3-yl]-N-[3-(2H-tetrazol-5-yl)-phenyl]-acetamide] | 11.2 |
| CC(C)(C)C(=O)CN1C(=O)N(CC(=O)Nc2cccc(-c3nn[nH]n3)c2)N=C(C2CCCC2)c2ccccc21 [Example 10, 2-[5-Cyclopentyl-1-(3,3-dimethyl-2-oxo-butyl)-2-oxo-1,2-dihydro-3H-1,3,4-benzotriazepin-3-yl]-[3-(2H-tetrazol-5-yl)-phenyl]-acetamide] | 89.1 |
| O=C(O)Cn1ccc2ccc(NC(=O)CN3N=C(C4CCCCC4)c4ccccc4N(CC(=O)C4CCCC4)C3=O)cc21 [Example 126, (6-{2-[5-Cyclohexyl-1-(2-cyclopentyl-2-oxo-ethyl)-2-oxo-1,2-dihydro-3H-1,3,4-benzotriazepin-3-yl]-acetylamino}-indol-1-yl)-acetic acid] | 0.0575 |
| CC(C)(CO)C(=O)CN1C(=O)N(CC(=O)Nc2cccc(CC(=O)O)c2)N=C(C2CCCCC2)c2ccccc21 [Example 110, (3-{2-[5-Cyclohexyl-1-(4-hydroxy-3,3-dimethyl-2-oxo-butyl)-2-oxo-1,2-dihydro-3H-1,3,4-benzotriazepin-3-yl]-acetylamino}-phenyl)-acetic acid] | 93.3 |
| CN(CC(=O)O)c1cccc(NC(=O)CN2N=C(C3CCCCC3)c3ccccc3N(CC(=O)C(C)(C)C)C2=O)c1 [Example 96, [(3-{2-[5-Cyclohexyl-1-(3,3-dimethyl-2-oxo-butyl)-2-oxo-1,2-dihydro-3H-1,3,4-benzotriazepin-3-yl]-acetylamino}-phenyl)-methyl-amino]-acetic acid] | 7.24 |
| CC(C)(C)C(=O)CN1C(=O)N(CC(=O)Nc2cccc(S(=O)(=O)CC(=O)O)c2)N=C(C2CCCCC2)c2ccccc21 [Example 50] | 11 |
| Cc1nc(-c2cccc(NC(=O)CN3N=C(C4CCCCC4)c4ccccc4N(CC(=O)C4CCCC4)C3=O)c2)cs1 [Example 136, 2-[5-Cyclohexyl-1-(2-cyclopentyl-2-oxo-ethyl)-2-oxo-1,2-dihydro-3H-1,3,4-benzotriazepin-3-yl]-N-[3-(2-methyl-thiazol-4-yl)-phenyl]-acetamide] | 6.03 |
| CC(C)(C)C(=O)CN1C(=O)N(CC(=O)Nc2cccc(CSCC(=O)O)c2)N=C(C2CCCCC2)c2ccccc21 [Example 71, (3-{2-[5-Cyclohexyl-1-(3,3-dimethyl-2-oxo-butyl)-2-oxo-1,2-dihydro-3H-1,3,4-benzotriazepin-3-yl]-acetylamino}-benzylsulfanyl)-acetic acid] | 3.8 |
| CC1(C(=O)CN2C(=O)N(CC(=O)Nc3cccc(CC(=O)O)c3)N=C(C3CCCCC3)c3ccccc32)CCCCC1 [Example 133, [3-(2-{5-Cyclohexyl-1-[2-(1-methyl-cyclohexyl)-2-oxo-ethyl]-2-oxo-1,2-dihydro-3H-1,3,4-benzotriazepin-3-yl}-acetylamino)-phenyl]-acetic acid] | 14.1 |
| CC(C)(C)C(=O)CN1C(=O)N(CC(=O)Nc2cccc(-c3ccc(C(=O)O)cc3)c2)N=C(C2CCCCC2)c2ccccc21 [Example 146, 3′-{2-[5-Cyclohexyl-1-(3,3-dimethyl-2-oxo-butyl)-2-oxo-1,2-dihydro-3H-1,3,4-benzotriazepin-3-yl]-acetylamino}-biphenyl-4-carboxylic acid] | 7.08 |
| CC(C)(C)C(=O)CN1C(=O)N(CC(=O)Nc2cc(C(=O)O)cc(C(=O)O)c2)N=C(C2CCCCC2)c2ccccc21 [Example 39, 5-{2-[5-Cyclohexyl-1-(3,3-dimethyl-2-oxo-butyl)-2-oxo-1,2-dihydro-3H-1,3,4-benzotriazepin-3-yl]-acetylamino}-isophthalic acid] | 7.59 |
| CN(c1cccc(NC(=O)CN2N=C(C3CCCCC3)c3ccccc3N(CC(=O)C3CCCC3)C2=O)c1)c1nnn[nH]1 [Example 124, 2-[5-Cyclohexyl-1-(2-cyclopentyl-2-oxo-ethyl)-2-oxo-1,2-dihydro-3H-1,3,4-benzotriazepin-3-yl]-N-(3-[methyl-(2H-tetrazol-5-yl)-amino]-phenyl)-acetamide] | 2.14 |
| CNc1cccc(NC(=O)CN2N=C(c3ccccn3)c3ccccc3N(CC(=O)c3ccccc3C)C2=O)c1 [Example 7, N-(3-Methylamino-phenyl)-2-[2-oxo-1-(2-oxo-2-o-tolyl-ethyl)-5-pyridin-2-yl-1,2-dihydro-3H-1,3,4-benzotriazepin-3-yl]-acetamide] | 50.1 |
| CC(C)(C)C(=O)CN1C(=O)N(CC(=O)Nc2cccc3nn(CC(=O)O)cc23)N=C(C2CCCCC2)c2ccccc21 [Example 142, (4-{2-[5-Cyclohexyl-1-(3,3-dimethyl-2-oxo-butyl)-2-oxo-1,2-dihydro-3H-1,3,4-benzotriazepin-3-yl]-acetylamino}-indazol-2-yl)-acetic acid] | 15.5 |
| CC(C)(C)C(=O)CN1C(=O)N(CC(=O)Nc2cccc(-c3cccc(C(=O)O)c3)c2)N=C(C2CCCCC2)c2ccccc21 [Example 151, 3′-{2-[5-Cyclohexyl-1-(3,3-dimethyl-2-oxo-butyl)-2-oxo-1,2-dihydro-3H-1,3,4-benzotriazepin-3-yl]-acetylamino}-biphenyl-3-carboxylic acid] | 11.5 |
| COc1ccc(NC(=O)CN2N=C(C3CCCCC3)c3ccccc3N(CC(=O)C(C)(C)C)C2=O)cc1 [Example 32, 2-[5-Cyclohexyl-1-(3,3-dimethyl-2-oxo-butyl)-2-oxo-1,2-dihydro-3H-1,3,4-benzotriazepin-3-yl]-N-(4-methoxy-phenyl)-acetamide] | 77.6 |
| CC1CCC(C2=NN(CC(=O)Nc3cccc(CC(=O)O)c3)C(=O)N(CC(=O)C(C)(C)C)c3ccccc32)CC1 (stereo not shown) [Example 103, (3-{2-[1-(3,3-Dimethyl-2-oxo-butyl)-5-(4-methyl-cyclohexyl)-2-oxo-1,2-dihydro-3H-1,3,4-benzotriazepin-3-yl]-acetylamino}-phenyl)-acetic acid] | 3.98 |
| O=C(O)CSc1cccc(NC(=O)CN2N=C(C3CCCCC3)c3ccccc3N(CC(=O)C3CC3)C2=O)c1 [Example 120, [3-(2-{5-Cyclohexyl-1-(2-cyclopropyl-2-oxo-ethyl)-2-oxo-1,2-dihydro-3H-1,3,4-benzotriazepin-3-yl]-acetylamino}-phenylsulfanyl)-acetic acid] | 37.2 |
| CC(C)(C)C(=O)CN1C(=O)N(CC(=O)Nc2cccc(-c3csc(C(=O)O)n3)c2)N=C(C2CCCCC2)c2ccccc21 [Example 108, 4-(3-{2-[5-Cyclohexyl-1-(3,3-dimethyl-2-oxo-butyl)-2-oxo-1,2-dihydro-3H-1,3,4-benzotriazepin-3-yl]-acetylamino}-phenyl)-thiazole-2-carboxylic acid] | 37.2 |
